Laboratory results: patent US20220306695A1, “COMPSTATIN ANALOGUES AND THEIR MEDICAL USES” (priority 2019, published 2022)
Read-outs that look alike come from different tables or passages of the source. Starred links: 1 amine or outer side, 2 acyl side, 3 side chain; linkers in the order of their positions; H or OH if unused. Positions of bridges follow the written chain, without caps; N, C: chain ends. Non-standard residues stand in square brackets, D forms with d. Residues, ends and D or L forms follow the SMILES beside them. Groups on a side chain read outwards from the residue. *: point of attachment. Trp(1-Me) = Cn1cc(C[C@H](N)C(=O)O)c2ccccc21; Abu(4-yl) = O=C([C@H](CC[*:3])N[*:1])[*:2]; C18 diacid = O=C(O)CCCCCCCCCCCCCCCCC(=O)*; γGlu = O=C(O)[C@H](CCC(=O)[*:2])N[*:1]; AEEA = NCCOCCOCC(=O)O; Sar = CNCC(=O)O

Key:
[1] = tested on: classical complement pathway; assay: In vitro haemolysis assay (inhibition of classical complement pathway); type: cell-based, human; details: Table 3; human serum, sensitized sheep red blood cells; read-out: IC50[nM], in vitro analysis of inhibition of hemolysis
Outline: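 Serially diluted compound (9 points) was preincubated 15 min at room temperature with diluted human serum, titrated per batch to give 70-90% maximal haemolysis, in Tris/casein buffer pH 7.4 with Mg2+/Ca2+. Antibody-sensitized sheep erythrocytes were then added for 30 min at 37° C, and the reaction was stopped with EDTA. Haemolysis was read at A405, with IC50 from 4PL fit.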

in vivo = assay: in vivo; design: species or system Cynomolgus monkeys (Macaca fascicularis); details: male, cynomolgus monkey, sc, 1840 nmol/kg, t½
Method: Healthy male Cynomolgus monkeys (Macaca fascicularis) received single subcutaneous administrations of each test substance. Compounds were formulated in 20 mM phosphate adjusted with NaOH to pH 7.5 and mannitol for isotonicity and dosed at 1840 nmol/kg. Blood was collected from a femoral vein from each animal at the following times: Pre-dose, 1, 2, 4, 8, 24, 48, 72, 96 and 120 h (10 sampling times). Blood was collected into serum separation tubes and allowed to clot at room temperature. The tubes were centrifuged and resulting serum was aliquoted and snap-frozen over dry-ice and stored at nominally −80° C. until analysis. All NHP studies were performed in accordance with animal welfare laws and regulations, including approval of the study by a local ethical review process.
In order to assess pharmacokinetic half-life (t %/), serum samples isolated from non-human primates at specific time points after dosing were analysed for total drug compound after sample preparation by solid phase extraction (SPE) and liquid chromatography mass spectrometry (LC-MS/MS) using analogue internal standard. Single measurement of serum concentrations were used for calculation of the pharmacokinetic parameters using the non-compartmental approach in Phoenix WinNonlin 6.3. Plasma terminal elimination half-life (ty) was determined as In(2)/λz where λz is the magnitude of the slope of the log linear regression of the log concentration versus time profile during the terminal phase.

[2] = type: physicochemical; details: 50 mg/mL peptide
Method: Chemical stability of compstatin analogues with cystathionine or disulfide bridge. Stability was assessed in three formulations at 50 mg/mL peptide, F1:20 mM phosphate pH 5.5, F2:20 mM phosphate pH 6.5 and F3:20 mM phosphate pH 7.5. The formulations were prepared by direct dissolution of peptide from lyophilized portions in the respective formulations. pH was adjusted to target with 1 M NaOH and 1 M HCl. Chemical stability was assessed under accelerated conditions (14 days, 40° C.) and evaluated as change in purity by reverse phase HPLC, and change in covalent oligomer content by denaturing SEC. The formulations were placed at 40° C. with analysis points at T=0, 7 and 14 days. On each time point a small volume was extracted and diluted to 2 mg/mL and tested by reverse phase HPLC and denaturing SEC. Purity was assessed by reverse phase HPLC using an Ultimate 3000 system for binary gradient application equipped with a Kinetix C18 column (cat. no. 00F-4462-Y0, 150 mm×3 mm, 2.6 μm) run at 0.5 ml/min with a gradient of buffer A (0.3% TFA, aq.) and buffer B (0.3% TFA, 90% MeCN, aq.) gradient from 40% B to 70% B over 20 min. Detection was done using a diode array detector set to 220 nm. Covalent oligomer formation was assessed by denaturing SEC (size exclusion chromatography) using an Ultimate 3000 system equipped with a TSKgel SuperSW 2000 column (cat. no. 818674, 300 mm×3 mm, 4 μm) run at 0.5 ml/min with isocratic flow of buffer A (0.1% TFA, 45% MeCN, aq.), 10 min. Detection was done using a diode array detector set to 215 nm. Compounds 126 and 156 were carefully weighed out and dissolved in formulations F1, F2 and F3 to a target concentration of 50 mg/mL. Once visually dissolved, concentration was confirmed by absorbance at 280 nm, and samples were placed in stability at 40° C. Samples for analysis were extracted on T=0, 7 and 14 days from a 40° C. climate chamber. The extracted volume was dissolved 1:25 (final concentration: 2 mg/mL) in 20 mM phosphate pH 5.5, 6.5 or 7.5 and measured by reverse phase HPLC and denaturing SEC by injection of 0.4 μL (column load […]). The resulting chromatograms were integrated to determine chemical purity by reverse phase HPLC and covalent oligomer content by denaturing SEC.

half-life (in vivo) [h] | Covalent oligomer content after 14 days 40° C. (%), F1 ([2]; F1: 20 mM phosphate pH 5.5, denaturing SEC) [%] | Purity after 14 days 40° C. (%), F1 ([2]; F1: 20 mM phosphate pH 5.5, normalized purity (HPLC)) [%] | Covalent oligomer content after 14 days 40° C. (%), F2 ([2]; F2: 20 mM phosphate pH 6.5, denaturing SEC) [%] | Purity after 14 days 40° C. (%), F2 ([2]; F2: 20 mM phosphate pH 6.5, normalized purity (HPLC)) [%] | Covalent oligomer content after 14 days 40° C. (%), F2 ([2]; F3: 20 mM phosphate pH 7.5, denaturing SEC) [%] | Purity after 14 days 40° C. (%), F3 ([2]; F3: 20 mM phosphate pH 7.5, normalized purity (HPLC)) [%] | SMILES | IC50 [1] [nM]
139 | 80 | 23 | 66 | 31 | 48 | 46 | CC[C@H](C)[C@@H]1NC(=O)[C@@H](NC(=O)[C@H](Cc2ccccc2)NC(=O)[C@H](CCC(=O)O)NC(=O)[C@H](CO)NC(C)=O)CSSC[C@@H](C(=O)N(C)CC(=O)N[C@@H](CCC(=O)O)C(=O)NCC(=O)N[C@@H](C)C(=O)N[C@@H](CCCCNC(=O)COCCOCCNC(=O)CC[C@H](NC(=O)COCCOCCNC(=O)CNC(=O)CC[C@H](NC(=O)CCCCCCCCCCCCCCCCC(=O)O)C(=O)O)C(=O)O)C(N)=O)NC(=O)[C@H](CCCNC(=N)N)NC(=O)[C@H](Cc2c[nH]cn2)NC(=O)[C@H](CCC(=O)O)NC(=O)CNC(=O)[C@H](Cc2c[nH]c3ccccc23)NC(=O)[C@H](CC(=O)O)NC(=O)[C@H](CCC(N)=O)NC(=O)[C@H](Cc2cn(C)c3ccccc23)NC1=O [Compound 119] (Ac-SEFCI[Trp(1-Me)]QDWGEHRC[Sar]EGAK([AEEA-γGlu-AEEA-Gly-γGlu-C18 diacid])-NH2; disulfide 4-14) | < 100
145 | – | – | – | – | – | – | CC[C@H](C)[C@@H]1NC(=O)[C@@H](NC(=O)[C@H](Cc2ccccc2)NC(=O)[C@H](CCC(=O)O)NC(=O)[C@H](CO)NC(C)=O)CSSC[C@@H](C(=O)N(C)CC(=O)N[C@@H](CCC(=O)O)C(=O)NCC(=O)N[C@@H](CCC(=O)O)C(=O)N[C@@H](CO)C(=O)N[C@@H](CCC(=O)O)C(=O)N[C@@H](CO)C(=O)N[C@@H](CCCCNC(=O)CC[C@H](NC(=O)CCCCCCCCCCCCCCCCC(=O)O)C(=O)O)C(N)=O)NC(=O)[C@H](CCCNC(=N)N)NC(=O)[C@H](Cc2c[nH]cn2)NC(=O)[C@H](CCC(=O)O)NC(=O)CNC(=O)[C@H](Cc2c[nH]c3ccccc23)NC(=O)[C@H](CC(=O)O)NC(=O)[C@H](CCC(N)=O)NC(=O)[C@H](Cc2cn(C)c3ccccc23)NC1=O [Compound 141] (Ac-SEFCI[Trp(1-Me)]QDWGEHRC[Sar]EGESESK([γGlu-C18 diacid])-NH2; disulfide 4-14) | < 100
117 | – | – | – | – | – | – | CC[C@H](C)[C@@H]1NC(=O)[C@@H](NC(=O)[C@H](Cc2ccccc2)NC(=O)[C@H](CCC(=O)O)NC(=O)[C@H](CO)NC(C)=O)CSCC[C@@H](C(=O)N(C)CC(=O)N[C@@H](CCC(=O)O)C(=O)NCC(=O)N[C@@H](CCC(=O)O)C(=O)NCCOCCOCC(=O)NCCOCCOCC(=O)N[C@@H](CCCCNC(=O)CC[C@H](NC(=O)CNC(=O)CC[C@H](NC(=O)CCCCCCCCCCCCCCCCC(=O)O)C(=O)O)C(=O)O)C(N)=O)NC(=O)[C@H](CCCNC(=N)N)NC(=O)[C@H](Cc2c[nH]cn2)NC(=O)[C@H](CCC(=O)O)NC(=O)CNC(=O)[C@H](Cc2c[nH]c3ccccc23)NC(=O)[C@H](CC(=O)O)NC(=O)[C@H](CCC(N)=O)NC(=O)[C@H](Cc2cn(C)c3ccccc23)NC1=O [Compound 146, Ac-SEFA(1)I[1-Me-Trp]QDWGEHRhC(1)[Sar]EGE[Peg3][Peg3]-K([17-carboxy-heptadecanoyl][γGlu]G[γGlu])-NH2] (Ac-SEFCI[Trp(1-Me)]QDWGEHR[Abu(4-yl)][Sar]EGE[AEEA][AEEA]K([γGlu-Gly-γGlu-C18 diacid])-NH2; thioether 4-14) | < 100
